# Results published in ChEMBL document CHEMBL1201861, “Genomics of Drug Sensitity in Cancer screening data, Wellcome Trust Sanger Institute”.
# How the values were obtained:
# Assay in all cases: cells
# Conditions in all cases: Homo sapiens
# [1] = system: DEL; format: functional, cell-based;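 note: growth inhibition of the human DEL cell line, read out with a cell viability assay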
# Description: SANGER: Inhibition of human DEL cell growth in a cell viability assay.
# [2] = system: DMS-114; format: functional, cell-based
# [3] = system: DOHH-2; format: functional, cell-based;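 note: growth inhibition of human DOHH-2 cells, read out with a cell viability assay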
# Description: SANGER: Inhibition of human DOHH-2 cell growth in a cell viability assay.
# [4] = system: EKVX; format: functional, cell-based;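 note: growth inhibition of human EKVX cells, read out with a cell viability assay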
# Description: SANGER: Inhibition of human EKVX cell growth in a cell viability assay.
# [5] = system: ES4; format: functional, cell-based;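 note: growth inhibition of human ES4 cells, read out by a cell viability assay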
# Description: SANGER: Inhibition of human ES4 cell growth in a cell viability assay.
# [6] = system: EW-1; format: functional, cell-based;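 note: growth inhibition of the human EW-1 cell line, read out by a cell viability assay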
# Description: SANGER: Inhibition of human EW-1 cell growth in a cell viability assay.
# [7] = system: EW-13; format: functional, cell-based;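 note: growth inhibition of EW-13 cells, read out with a cell viability assay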
# Description: SANGER: Inhibition of human EW-13 cell growth in a cell viability assay.
# [8] = system: EW-16; format: functional, cell-based;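 note: growth inhibition of human EW-16 cells, read out as cell viability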
# Description: SANGER: Inhibition of human EW-16 cell growth in a cell viability assay.
# [9] = system: EW-18; format: functional, cell-based;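 note: growth inhibition of EW-18 cells, read out by a cell viability assay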
# Description: SANGER: Inhibition of human EW-18 cell growth in a cell viability assay.
# [10] = system: GI-1; format: functional, cell-based;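 note: growth inhibition of human GI-1 cells, measured with a cell viability readout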
# Description: SANGER: Inhibition of human GI-1 cell growth in a cell viability assay.
# [11] = system: GI-ME-N; format: functional, cell-based;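 note: growth inhibition of human GI-ME-N cells, read out with a cell viability assay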
# Description: SANGER: Inhibition of human GI-ME-N cell growth in a cell viability assay.
# [12] = system: HCC1187; format: functional, cell-based;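 note: growth inhibition of HCC1187 cells, read out with a cell viability assay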
# Description: SANGER: Inhibition of human HCC1187 cell growth in a cell viability assay.
# [13] = system: HDLM-2; format: functional, cell-based;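 note: cell viability assay measuring suppression of HDLM-2 proliferation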
# Description: SANGER: Inhibition of human HDLM-2 cell growth in a cell viability assay.
# [14] = system: HL-60; format: functional, cell-based;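 note: growth inhibition of human HL-60 cells, read out with a cell viability assay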
# Description: SANGER: Inhibition of human HL-60 cell growth in a cell viability assay.
# [15] = system: HT-144; format: functional, cell-based
# Description: SANGER: Inhibition of human HT-144 cell growth in a cell viability assay.
# [16] = system: IA-LM; format: functional, cell-based;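 note: cell viability assay measuring growth inhibition of human IA-LM cells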
# Description: SANGER: Inhibition of human IA-LM cell growth in a cell viability assay.
# [17] = system: JVM-3; format: functional, cell-based;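 note: growth inhibition of human JVM-3 cells, read out with a cell viability assay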
# Description: SANGER: Inhibition of human JVM-3 cell growth in a cell viability assay.
# [18] = system: KARPAS-45; format: functional, cell-based;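 note: inhibition of cell line growth, read out through a viability assay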
# Description: SANGER: Inhibition of human KARPAS-45 cell growth in a cell viability assay.
# [19] = system: KLE; format: functional, cell-based;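 note: growth inhibition of human KLE cells, read out with a cell viability assay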
# Description: SANGER: Inhibition of human KLE cell growth in a cell viability assay.
# [20] = system: KMOE-2; format: functional, cell-based;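 note: growth inhibition of human KMOE-2 cells, read out with a cell viability assay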
# Description: SANGER: Inhibition of human KMOE-2 cell growth in a cell viability assay.
# [21] = system: KP-N-YS; format: functional, cell-based;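 note: cell viability assay measuring inhibition of cell line growth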
# Description: SANGER: Inhibition of human KP-N-YS cell growth in a cell viability assay.
# [22] = system: L-363; format: functional, cell-based
# Description: SANGER: Inhibition of human L-363 cell growth in a cell viability assay.
# [23] = system: L-428; format: functional, cell-based
# Description: SANGER: Inhibition of human L-428 cell growth in a cell viability assay.
# [24] = system: LAMA-84; format: functional, cell-based;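 note: growth inhibition of LAMA-84 cells, read out with a cell viability assay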
# Description: SANGER: Inhibition of human LAMA-84 cell growth in a cell viability assay.
# [25] = system: LU-134-A; format: functional, cell-based
# Description: SANGER: Inhibition of human LU-134-A cell growth in a cell viability assay.
# [26] = system: MC116; format: functional, cell-based;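 note: growth inhibition of MC116 cells, read out with a cell viability assay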
# Description: SANGER: Inhibition of human MC116 cell growth in a cell viability assay.
# [27] = system: MEG-01; format: functional, cell-based;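 note: growth inhibition of MEG-01 cells, read out by a cell viability assay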
# Description: SANGER: Inhibition of human MEG-01 cell growth in a cell viability assay.
# [28] = system: MHH-NB-11; format: functional, cell-based;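 note: growth inhibition of human MHH-NB-11 cells, read out by a cell viability assay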
# Description: SANGER: Inhibition of human MHH-NB-11 cell growth in a cell viability assay.
# [29] = system: MMAC-SF; format: functional, cell-based;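 note: growth inhibition of human MMAC-SF cells, read out with a cell viability assay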
# Description: SANGER: Inhibition of human MMAC-SF cell growth in a cell viability assay.
# [30] = system: MOLT-16; format: functional, cell-based;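 note: growth inhibition of human MOLT-16 cells, read out with a cell viability assay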
# Description: SANGER: Inhibition of human MOLT-16 cell growth in a cell viability assay.
# [31] = system: MZ1-PC; format: functional, cell-based;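 note: cell viability assay measuring growth inhibition of human MZ1-PC cells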
# Description: SANGER: Inhibition of human MZ1-PC cell growth in a cell viability assay.
# [32] = system: MZ2-MEL; format: functional, cell-based;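 note: growth inhibition of MZ2-MEL cells read out with a cell viability assay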
# Description: SANGER: Inhibition of human MZ2-MEL cell growth in a cell viability assay.
# [33] = system: MZ7-mel; format: functional, cell-based;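 note: growth inhibition of human MZ7-mel cells, measured by a cell viability assay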
# Description: SANGER: Inhibition of human MZ7-mel cell growth in a cell viability assay.
# [34] = system: Mo; format: functional, cell-based
# Description: SANGER: Inhibition of human Mo-T cell growth in a cell viability assay.
# [35] = system: NB10; format: functional, cell-based;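 note: growth inhibition of NB10 cells, read out by a cell viability assay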
# Description: SANGER: Inhibition of human NB10 cell growth in a cell viability assay.
# [36] = system: NB69; format: functional, cell-based;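 note: growth inhibition of NB69 cells, determined by a cell viability assay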
# Description: SANGER: Inhibition of human NB69 cell growth in a cell viability assay.
# [37] = system: NCI-H1304; format: functional, cell-based;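 note: growth inhibition of the cancer cell line, measured in a cell viability assay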
# Description: SANGER: Inhibition of human NCI-H1304 cell growth in a cell viability assay.
# [38] = system: NCI-H1395; format: functional, cell-based;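 note: cell viability assay read-out quantifying reduced proliferation of human NCI-H1395 cells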
# Description: SANGER: Inhibition of human NCI-H1395 cell growth in a cell viability assay.
# [39] = system: NCI-H1581; format: functional, cell-based;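 note: cell growth inhibition read out by a viability assay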
# Description: SANGER: Inhibition of human NCI-H1581 cell growth in a cell viability assay.
# [40] = system: NCI-H209; format: functional, cell-based;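 note: growth inhibition of human NCI-H209 cells, measured by a cell viability assay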
# Description: SANGER: Inhibition of human NCI-H209 cell growth in a cell viability assay.
# [41] = system: NCI-H526; format: functional, cell-based;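 note: growth inhibition of the human NCI-H526 cell line, measured by a cell viability assay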
# Description: SANGER: Inhibition of human NCI-H526 cell growth in a cell viability assay.
# [42] = system: NCI-H747; format: functional, cell-based;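 note: growth inhibition of human NCI-H747 cells, read out by a cell viability assay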
# Description: SANGER: Inhibition of human NCI-H747 cell growth in a cell viability assay.
# [43] = system: SNU-5; format: functional, cell-based;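 note: cell viability readout used to measure growth inhibition in human NCI-SNU-5 cells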
# Description: SANGER: Inhibition of human NCI-SNU-5 cell growth in a cell viability assay.
# [44] = system: NH-12; format: functional, cell-based;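 note: growth inhibition of NH-12 cells, read out with a cell viability assay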
# Description: SANGER: Inhibition of human NH-12 cell growth in a cell viability assay.
# [45] = system: ONS-76; format: functional, cell-based;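 note: growth inhibition of human ONS-76 cells, read out with a cell viability assay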
# Description: SANGER: Inhibition of human ONS-76 cell growth in a cell viability assay.
# [46] = system: OVCAR-4; format: functional, cell-based;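 note: growth inhibition of human OVCAR-4 cells, measured with a cell viability assay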
# Description: SANGER: Inhibition of human OVCAR-4 cell growth in a cell viability assay.
# [47] = system: RKO; format: functional, cell-based;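 note: growth inhibition of human RKO cells, read out with a cell viability assay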
# Description: SANGER: Inhibition of human RKO cell growth in a cell viability assay.
# [48] = system: Ramos-2G6-4C10; format: functional, cell-based;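 note: growth inhibition of the cell line, measured by a cell viability read-out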
# Description: SANGER: Inhibition of human Ramos-2G6-4C10 cell growth in a cell viability assay.
# [49] = system: SF-539; format: functional, cell-based;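 note: Read-out is a cell viability assay, with IC50 reflecting inhibition of cell growth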
# Description: SANGER: Inhibition of human SF539 cell growth in a cell viability assay.
# [50] = system: SJSA-1; format: functional, cell-based;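 note: growth inhibition of human SJSA-1 cells, read out through a cell viability measurement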
# Description: SANGER: Inhibition of human SJSA-1 cell growth in a cell viability assay.
# [51] = system: SK-MEL-1; format: functional, cell-based;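 note: growth inhibition of human SK-MEL-1 cells, read out by a cell viability assay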
# Description: SANGER: Inhibition of human SK-MEL-1 cell growth in a cell viability assay.
# [52] = system: SK-N-FI; format: functional, cell-based;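 note: cell viability assay measuring growth inhibition of human SK-N-FI cells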
# Description: SANGER: Inhibition of human SK-N-FI cell growth in a cell viability assay.
# [53] = system: SK-NEP-1; format: functional, cell-based;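 note: growth inhibition of human SK-NEP-1 cells, read out by a cell viability assay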
# Description: SANGER: Inhibition of human SK-NEP-1 cell growth in a cell viability assay.
# [54] = system: SK-PN-DW; format: functional, cell-based;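 note: growth inhibition measured with a viability assay on these cells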
# Description: SANGER: Inhibition of human SK-PN-DW cell growth in a cell viability assay.
# [55] = system: A101D; format: functional, cell-based;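 note: growth inhibition of the cell line, measured with a viability assay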
# Description: SANGER: Inhibition of human A101D cell growth in a cell viability assay.
# [56] = system: A388; format: functional, cell-based
# Description: SANGER: Inhibition of human A388 cell growth in a cell viability assay.
# [57] = system: ATN-1; format: functional, cell-based
# Description: SANGER: Inhibition of human ATN-1 cell growth in a cell viability assay.
# [58] = system: BB30-HNC; format: functional, cell-based
# Description: SANGER: Inhibition of human BB30-HNC cell growth in a cell viability assay.
# [59] = system: Becker; format: functional, cell-based
# Description: SANGER: Inhibition of human Becker cell growth in a cell viability assay.
# [60] = system: TE-10; format: functional, cell-based
# Description: SANGER: Inhibition of human TE-10 cell growth in a cell viability assay.
# [61] = system: TE-6; format: functional, cell-based
# Description: SANGER: Inhibition of human TE-6 cell growth in a cell viability assay.
# [62] = system: TGBC24TKB; format: functional, cell-based
# Description: SANGER: Inhibition of human TGBC24TKB cell growth in a cell viability assay.
# [63] = system: U-87 MG; format: functional, cell-based, U-87MG ATCC
# Description: SANGER: Inhibition of human U-87-MG cell growth in a cell viability assay.
# [64] = system: UACC-257; format: functional, cell-based
# Description: SANGER: Inhibition of human UACC-257 cell growth in a cell viability assay.
# [65] = system: CAS-1; format: functional, cell-based
# Description: SANGER: Inhibition of human CAS-1 cell growth in a cell viability assay.
# [66] = system: COLO-320-HSR; format: functional, cell-based
# Description: SANGER: Inhibition of human COLO-320-HSR cell growth in a cell viability assay.
structure (smiles),measurement,setting,value
C/C=C(/C)C(=O)O[C@H]1C(C)=C2[C@H]([C@@H]1OC(=O)CCCCCCC)[C@@](C)(OC(C)=O)C[C@H](OC(=O)CCC)[C@@]1(O)[C@H]2OC(=O)[C@@]1(C)O [THAPSIGARGIN],IC50,[1],10.3 nM
same,IC50,[2],> 512 nM
same,IC50,[3],22.3 nM
same,IC50,[4],250 nM
same,IC50,[5],< 2 nM
same,IC50,[6],3.88 nM
same,IC50,[7],2.31 nM
same,IC50,[8],0.598 nM
same,IC50,[9],2.11 nM
same,IC50,[10],0.549 nM
same,IC50,[11],18.2 nM
same,IC50,[12],505 nM
same,IC50,[13],215 nM
same,IC50,[14],> 512 nM
same,IC50,[15],0.518 nM
same,IC50,[16],2.39 nM
same,IC50,[17],33.6 nM
same,IC50,[18],8.06 nM
same,IC50,[19],70.2 nM
same,IC50,[20],82.9 nM
same,IC50,[21],8.06 nM
same,IC50,[22],0.833 nM
same,IC50,[23],> 512 nM
same,IC50,[24],19.4 nM
same,IC50,[25],93.3 nM
same,IC50,[26],< 2 nM
same,IC50,[27],10.8 nM
same,IC50,[28],45.1 nM
same,IC50,[29],28.3 nM
same,IC50,[30],4.52 nM
same,IC50,[31],< 2 nM
same,IC50,[32],1.79 nM
same,IC50,[33],107 nM
same,IC50,[34],> 512 nM
same,IC50,[35],63.2 nM
same,IC50,[36],0.873 nM
same,IC50,[37],59.1 nM
same,IC50,[38],176 nM
same,IC50,[39],0.55 nM
same,IC50,[40],18.1 nM
same,IC50,[41],34 nM
same,IC50,[42],100 nM
same,IC50,[43],91.4 nM
same,IC50,[44],24 nM
same,IC50,[45],9.98 nM
same,IC50,[46],2.93 nM
same,IC50,[47],1.61 nM
same,IC50,[48],0.855 nM
same,IC50,[49],1.94 nM
same,IC50,[50],3 nM
same,IC50,[51],> 512 nM
same,IC50,[52],88.2 nM
same,IC50,[53],15.9 nM
same,IC50,[54],< 2 nM
same,IC50,[55],4.82 nM
same,IC50,[56],1.39 nM
same,IC50,[57],32 nM
same,IC50,[58],0.984 nM
same,IC50,[59],135 nM
same,IC50,[60],1.57 nM
same,IC50,[61],17.8 nM
same,IC50,[62],< 2 nM
same,IC50,[63],132 nM
same,IC50,[64],115 nM
same,IC50,[65],118 nM
same,IC50,[66],48 nM
C/C(O)=C(\C#N)C(=O)Nc1cc(Br)ccc1Br,IC50,[1],> 16000 nM
same,IC50,[2],> 16000 nM
same,IC50,[3],> 16000 nM
same,IC50,[4],> 16000 nM
same,IC50,[5],> 16000 nM
same,IC50,[6],> 16000 nM
same,IC50,[7],> 16000 nM
same,IC50,[8],> 16000 nM
same,IC50,[9],> 16000 nM
same,IC50,[10],> 16000 nM
same,IC50,[11],> 16000 nM
same,IC50,[12],> 16000 nM
same,IC50,[13],> 16000 nM
same,IC50,[14],> 16000 nM
same,IC50,[15],> 16000 nM
same,IC50,[16],> 16000 nM
same,IC50,[17],> 16000 nM
same,IC50,[18],> 16000 nM
same,IC50,[19],> 16000 nM
same,IC50,[20],> 16000 nM
same,IC50,[21],> 16000 nM
same,IC50,[22],> 16000 nM
same,IC50,[23],> 16000 nM
same,IC50,[24],> 16000 nM
same,IC50,[25],> 16000 nM
same,IC50,[26],> 16000 nM
same,IC50,[27],> 16000 nM
same,IC50,[28],> 16000 nM
same,IC50,[29],> 16000 nM
same,IC50,[30],> 16000 nM
same,IC50,[31],> 16000 nM
same,IC50,[32],> 16000 nM
same,IC50,[33],> 16000 nM
same,IC50,[34],> 16000 nM
same,IC50,[35],> 16000 nM
same,IC50,[36],> 16000 nM
same,IC50,[37],> 16000 nM
same,IC50,[38],> 16000 nM
same,IC50,[39],> 16000 nM
same,IC50,[40],> 16000 nM
same,IC50,[41],> 16000 nM
same,IC50,[42],> 16000 nM
same,IC50,[43],> 16000 nM
same,IC50,[44],> 16000 nM
same,IC50,[45],> 16000 nM
same,IC50,[46],> 16000 nM
same,IC50,[47],> 16000 nM
same,IC50,[48],> 16000 nM
same,IC50,[49],> 16000 nM
same,IC50,[50],> 16000 nM
same,IC50,[51],> 16000 nM
same,IC50,[52],> 16000 nM
same,IC50,[53],> 16000 nM
same,IC50,[54],> 16000 nM
same,IC50,[55],> 16000 nM
same,IC50,[56],> 16000 nM
same,IC50,[57],> 16000 nM
same,IC50,[58],> 16000 nM
same,IC50,[59],> 16000 nM
same,IC50,[60],> 16000 nM
same,IC50,[61],> 16000 nM
same,IC50,[62],> 16000 nM
same,IC50,[63],> 16000 nM
same,IC50,[64],> 16000 nM
same,IC50,[65],> 16000 nM
same,IC50,[66],> 16000 nM
